Source: PubChem BioAssay AID248 (DTP/NCI, 2004)
Values joined by “and” are separate entries in the source; they are usually repeats but may differ in a detail not shown here. Equal entries are not always repeated. Inconclusive results and toxic doses are left out. Cut-off read from the data, not from the text of the source: active = T/C of 150% or more; inactive = T/C below 125%.

System: L1210 leukemia ip in BDF1 mice, survival T/C
Assay: NCI In Vivo Anticancer Drug Screen. Data for tumor model L1210 Leukemia (intraperitoneal) in B6D2F1 (BDF1) mice
Settings: endpoint: mean survival time, higher = longer survival
Experimental: The antitumor activity of compounds was measured in mice bearing transplantable tumors. Survival or tumor size were measured and the results are expressed as the measurement made in the treated group (T) divided by the measurement made in the vehicle treated control group (C). The tumor model used in this assay is L1210 Leukemia (intraperitoneal) in B6D2F1 (BDF1) mice

[1] = dose: 100.0 mg/kg/injection, schedule: Q01DX001 (ip), vehicle: carboxymethylcellulose (CMC)
[2] = dose: 200.0 mg/kg/injection, schedule: Q01DX001 (ip), vehicle: carboxymethylcellulose (CMC)
[3] = dose: 400.0 mg/kg/injection, schedule: Q01DX001 (ip), vehicle: carboxymethylcellulose (CMC)
[4] = dose: 100.0 mg/kg/injection, schedule: Q01DX009 (ip), vehicle: Klucel (hydroxypropylcellulose) (HPC)
[5] = dose: 100.0 mg/kg/injection, schedule: Q01DX001 (ip), vehicle: saline
[6] = dose: 200.0 mg/kg/injection, schedule: Q01DX001 (ip), vehicle: saline
[7] = dose: 400.0 mg/kg/injection, schedule: Q01DX001 (ip), vehicle: saline
[8] = dose: 100.0 mg/kg/injection, schedule: Q04DX003 (ip), vehicle: acetone
[9] = dose: 100.0 mg/kg/injection, schedule: Q01DX009 (ip), vehicle: saline with Tween-80
[10] = dose: 100.0 mg/kg/injection, schedule: Q04DX003 (ip), vehicle: saline with Tween-80
[11] = dose: 200.0 mg/kg/injection, schedule: Q01DX009 (ip), vehicle: saline with Tween-80
[12] = dose: 200.0 mg/kg/injection, schedule: Q04DX003 (ip), vehicle: saline with Tween-80
[13] = dose: 400.0 mg/kg/injection, schedule: Q01DX009 (ip), vehicle: saline with Tween-80
[14] = dose: 400.0 mg/kg/injection, schedule: Q04DX003 (ip), vehicle: saline with Tween-80

Measured: T/C

CC(=O)OCCc1ccc([N+](=O)[O-])cc1
inactive: dose: 100.0 mg/kg/injection, schedule: Q04DX002 (ip), vehicle: saline with Tween-80 97 % of control | dose: 200.0 mg/kg/injection, schedule: Q04DX002 (ip), vehicle: saline with Tween-80 93 % of control | dose: 400.0 mg/kg/injection, schedule: Q04DX002 (ip), vehicle: saline with Tween-80 97 % of control

O=C1C(=O)c2cc(Cl)ccc2-c2ccc(Cl)cc21
inactive: dose: 50.0 mg/kg/injection, schedule: Q01DX001 (ip), vehicle: carboxymethylcellulose (CMC) 97 % of control | [1] 106 % of control | [2] 103 % of control | [3] 97 % of control

COc1cc(C)c(C(=O)c2ccccc2NS(=O)(=O)c2ccc(C)cc2)cc1OC
inactive: dose: 50.0 mg/kg/injection, schedule: Q01DX001 (ip), vehicle: other 98 % of control | dose: 100.0 mg/kg/injection, schedule: Q01DX001 (ip), vehicle: other 95 % of control | dose: 200.0 mg/kg/injection, schedule: Q01DX001 (ip), vehicle: other 92 % of control | dose: 400.0 mg/kg/injection, schedule: Q01DX001 (ip), vehicle: other 104 % of control

O=C(N/N=C\c1ccc2c(c1)OCO2)N/N=C/c1ccc2c(c1)OCO2
inactive: dose: 100.0 mg/kg/injection, schedule: Q04DX003 (ip), vehicle: Klucel (hydroxypropylcellulose) (HPC) 97 % of control | dose: 200.0 mg/kg/injection, schedule: Q04DX003 (ip), vehicle: Klucel (hydroxypropylcellulose) (HPC) 100 % of control | dose: 400.0 mg/kg/injection, schedule: Q04DX003 (ip), vehicle: Klucel (hydroxypropylcellulose) (HPC) 97 % of control

O=C1NC(c2cccc(OCc3ccccc3)c2)Nc2ccccc21 (stereo unspecified)
inactive: dose: 50.0 mg/kg/injection, schedule: Q01DX009 (ip), vehicle: Klucel (hydroxypropylcellulose) (HPC) 105 % of control | [4] 107 % of control | dose: 150.0 mg/kg/injection, schedule: Q01DX009 (ip), vehicle: Klucel (hydroxypropylcellulose) (HPC) 109 % of control

Cn1c2c(c(=O)n(C)c1=O)C(=Nc1ccccc1N)C(=O)N2
inactive: [5] 101 % of control | [6] 101 % of control | [7] 90 % of control

CCC1(C)CCC2(C)C(CCC3C2CCCC3(C)C(=O)O)C1 (stereo unspecified)
inactive: dose: 12.5 mg/kg/injection, schedule: Q04DX002 (ip), vehicle: saline with Tween-80 96 % of control | dose: 25.0 mg/kg/injection, schedule: Q04DX002 (ip), vehicle: saline with Tween-80 96 % of control | dose: 50.0 mg/kg/injection, schedule: Q04DX002 (ip), vehicle: saline with Tween-80 89 % of control

O=S(=O)(O)CCCBr
inactive: [8] 96 % of control | dose: 200.0 mg/kg/injection, schedule: Q04DX003 (ip), vehicle: acetone 95 % of control | dose: 400.0 mg/kg/injection, schedule: Q04DX003 (ip), vehicle: acetone 87 % of control

O=C(CC(=O)C(F)(F)F)c1csc2ccccc12
inactive: dose: 15.0 mg/kg/injection, schedule: Q01DX015 (ip), vehicle: other 108 % of control | dose: 25.0 mg/kg/injection, schedule: Q01DX009 (ip), vehicle: saline 92 % of control | dose: 25.0 mg/kg/injection, schedule: Q04DX003 (ip), vehicle: acetone 97 % of control | dose: 30.0 mg/kg/injection, schedule: Q01DX015 (ip), vehicle: other 94 % of control | dose: 50.0 mg/kg/injection, schedule: Q01DX009 (ip), vehicle: saline 92 % of control | dose: 50.0 mg/kg/injection, schedule: Q04DX003 (ip), vehicle: acetone 100 % of control | dose: 60.0 mg/kg/injection, schedule: Q01DX015 (ip), vehicle: other 97 % of control | [5] 95 % of control | [8] 97 % of control | dose: 120.0 mg/kg/injection, schedule: Q01DX015 (ip), vehicle: other 94 % of control

Nc1c(Br)cccc1Br
inactive: dose: 50.0 mg/kg/injection, schedule: Q01DX001 (ip), vehicle: saline 101 % of control | [5] 109 % of control | [6] 103 % of control | [7] 97 % of control

CCOC(=O)OCCc1ccccc1
inactive: [1] 106 % of control | dose: 100.0 mg/kg/injection, schedule: Q01DX009 (ip), vehicle: carboxymethylcellulose (CMC) 103 % of control and 92 % of control | dose: 100.0 mg/kg/injection, schedule: Q04DX002 (ip), vehicle: carboxymethylcellulose (CMC) 97 % of control and 109 % of control | dose: 100.0 mg/kg/injection, schedule: Q04DX003 (ip), vehicle: carboxymethylcellulose (CMC) 98 % of control | [2] 100 % of control | dose: 200.0 mg/kg/injection, schedule: Q01DX009 (ip), vehicle: carboxymethylcellulose (CMC) 95 % of control and 103 % of control | dose: 200.0 mg/kg/injection, schedule: Q04DX002 (ip), vehicle: carboxymethylcellulose (CMC) 98 % of control and 100 % of control | dose: 200.0 mg/kg/injection, schedule: Q04DX003 (ip), vehicle: carboxymethylcellulose (CMC) 98 % of control | [3] 105 % of control | dose: 400.0 mg/kg/injection, schedule: Q01DX009 (ip), vehicle: carboxymethylcellulose (CMC) 93 % of control and 98 % of control | dose: 400.0 mg/kg/injection, schedule: Q04DX002 (ip), vehicle: carboxymethylcellulose (CMC) 97 % of control and 106 % of control | dose: 400.0 mg/kg/injection, schedule: Q04DX003 (ip), vehicle: carboxymethylcellulose (CMC) 102 % of control

Cc1ccc(NC(=O)Nc2ccccc2F)cc1Cl
inactive: [4] 111 % of control | dose: 200.0 mg/kg/injection, schedule: Q01DX009 (ip), vehicle: Klucel (hydroxypropylcellulose) (HPC) 97 % of control | dose: 400.0 mg/kg/injection, schedule: Q01DX009 (ip), vehicle: Klucel (hydroxypropylcellulose) (HPC) 92 % of control

CC1(C)C(C(=O)O)CC1C(=O)C(=O)O (stereo unspecified)
inactive: dose: 75.0 mg/kg/injection, schedule: Q01DX001 (ip), vehicle: carboxymethylcellulose (CMC) 96 % of control | dose: 150.0 mg/kg/injection, schedule: Q01DX001 (ip), vehicle: carboxymethylcellulose (CMC) 96 % of control | dose: 300.0 mg/kg/injection, schedule: Q01DX001 (ip), vehicle: carboxymethylcellulose (CMC) 94 % of control

CC(=O)OCCN1c2ccccc2Sc2cnccc21
inactive: [9] 104 % of control | [10] 104 % of control | [11] 97 % of control | [12] 110 % of control | [13] 104 % of control | [14] 104 % of control

CCOC(=O)COc1cc(Cl)c(Cl)cc1Cl
inactive: dose: 75.0 mg/kg/injection, schedule: Q01DX009 (ip), vehicle: gum acacia 110 % of control | dose: 100.0 mg/kg/injection, schedule: Q04DX002 (ip), vehicle: gum acacia 100 % of control | dose: 200.0 mg/kg/injection, schedule: Q04DX002 (ip), vehicle: gum acacia 118 % of control | dose: 400.0 mg/kg/injection, schedule: Q04DX002 (ip), vehicle: gum acacia 92 % of control

Nc1cc([N+](=O)[O-])ccc1Nc1ccccc1
inactive: dose: 25.0 mg/kg/injection, schedule: Q01DX009 (ip), vehicle: DMSO 93 % of control | dose: 100.0 mg/kg/injection, schedule: Q04DX003 (ip), vehicle: DMSO 89 % of control

COC(=O)CC1CCS(=O)(=O)C1 (stereo unspecified)
inactive: [9] 101 % of control | [11] 103 % of control | [13] 95 % of control

CC(C)=CC/C(C)=C/C=N\Nc1ccc([N+](=O)[O-])cc1[N+](=O)[O-]
inactive: [10] 98 % of control | [12] 95 % of control | [14] 93 % of control
